Results from a melting point compilation (Tetko et al.; mined from patent text by program, amines drawn as free bases though some values may be those of a salt).

First: CCCCCCCCCCCCCCCc1cccc(OC)c1
Second: CCCCCCCCCc1cnc(-c2ccc(C(=O)OC)cc2)nc1
The melting point of the first is lower: 27 to 28 °C for the first, 61.7 °C for the second.

First: COc1ccc(C(=N)c2ccc(Cl)cc2)c(O)c1
Second: COc1ccc(C(=O)C(CC(=O)O)c2ccccc2)cc1 (stereo unspecified)
The melting point of the first is higher: 212 to 214 °C for the first, 157 to 159 °C for the second.

Compared with `Cc1cc(C)cc(N(CCCC(N)=O)Cc2ccc3nc(NCCCN4CCOCC4)n(Cc4cccc5c4ncn5C)c3c2)c1`, `Cn1nc(C(=O)NCc2ccc(Cl)cc2)c(=O)c2cc(CN3CCOCC3)ccc21` is lower in melting point: 206 °C for the first, 190 to 192 °C for the second.

First: NS(=O)(=O)c1cc(C(=O)O)cc(NCc2ccccc2)c1Sc1ccccc1
Second: O=C1C=CC(OCc2ccccc2)N1S(=O)(=O)c1ccccc1 (stereo unspecified)
The melting point of the first is higher: 224 to 225 °C for the first, 56 to 58 °C for the second.

First: CCCOC(=O)c1cc(=O)c(Sc2ccc(OC)cc2)co1
Second: Cc1ccc(Sc2cncc3sc(C(=O)NCC(O)CO)cc23)cc1 (stereo unspecified)
The melting point of the first is lower: 91 to 93 °C for the first, 120 to 122 °C for the second.

First: O=C(CCCCCNC(=O)c1ccco1)NO
Second: COC(=O)CNC(=O)c1cccc(NC(=O)CCl)c1
The melting point of the first is lower: 114 to 115 °C for the first, 122 to 124 °C for the second.

Compared with `CC(C)n1nc(C(Cl)C(=O)c2cccc(F)c2)ccc1=O` (stereo unspecified), `CC(C)CC1N=C(c2ccccc2)c2cc(Cl)ccc2NC1=O` (stereo unspecified) is higher in melting point: 65.5 to 66.5 °C for the first, 213 °C for the second.

Compared with `CCCCCS(=O)(=O)NC(=O)/C=C/c1ccc(OC(C)C)cc1Oc1ncc(C(F)(F)F)cc1Cl`, `CCCC(COS(C)(=O)=O)(OC(C)C)c1ccc(Cl)cc1Cl` (stereo unspecified) is lower in melting point: 142 to 144 °C for the first, 58 to 61 °C for the second.

First: Cc1noc(C(=O)NCCc2ccc(S(N)(=O)=O)cc2)n1
Second: CN(Cc1ccc(CCn2cnc3cc(-c4ccc(Cl)cc4)sc3c2=O)cc1)C(=O)CCl
The melting point of the first is higher: 218 to 220 °C for the first, 162 to 165 °C for the second.

Compared with `COc1ccc(Cl)cc1N1CCN(CCNc2nccc(C(=O)N3CCC(Nc4nc(=O)cc[nH]4)CC3)n2)CC1`, `CC(=O)NC[C@H]1CN(c2ccc(N3CCC(Cc4nnn[nH]4)CC3)c(F)c2)C(=O)O1` is higher in melting point: 114 to 117 °C for the first, 164 to 166 °C for the second.

First: CSc1ccc(C2=NNC(C(=O)OC(C)(C)C)S2)cc1 (stereo unspecified)
Second: Fc1ccc2sc(-c3ccc(CBr)cc3)nc2c1
The melting point of the first is lower: 71 to 72 °C for the first, 138 to 141 °C for the second.

Compared with `Cc1ccc(OCCOc2cccc(C)c2)cc1`, `O=C(O)C1=Cc2cc(OCc3ccc(F)cc3)ccc2S(=O)(=O)CC1` is higher in melting point: 94 °C for the first, 270 to 273 °C for the second.

First: CCOC(=O)CC=NCC(O)COc1ccccc1C#N (stereo unspecified)
Second: CCOC(=O)c1cn2c(=O)n(CC)c3ccccc3n2c1=O
The melting point of the first is lower: 120 °C for the first, 235 to 237 °C for the second.

First: COC(=O)c1cc(N2CCC2)c(C(F)(F)F)cc1N
Second: O=C(OC1CCCCC1)c1ncn2c1[C@@H]1CCCN1C(=O)c1c-2ccc(F)c1Cl
The melting point of the first is lower: 80 to 86 °C for the first, 163 to 166 °C for the second.

Compared with `Cc1ccc(COc2ccc(CC(NC(=O)c3cn4ccc(-c5ccc(Cl)cc5)cc4n3)C(=O)O)cc2)cc1` (stereo unspecified), `Fc1ccc(C(c2ccc(OCc3ccccc3)cc2)C(c2ccccc2)C(F)(F)F)cc1` (stereo unspecified) is lower in melting point: 262 °C for the first, 111 to 114 °C for the second.

First: CC(C)(SN=O)C1COC(=O)N1 (stereo unspecified)
Second: CC1(C)COC(c2cc3c(O)cccc3o2)=N1
The melting point of the first is lower: 65 °C for the first, 187 to 188 °C for the second.

Compared with `CSc1cc(C)nc(SC)c1NC(=O)CCCCCCCSc1nc2ccccc2o1`, `CCCCCCc1oc(C=Cc2ccccc2)nc1CO` is lower in melting point: 119 to 122 °C for the first, 44 to 45 °C for the second.

First: CON=C(c1ccccc1)c1ccccc1N
Second: NCc1ccccc1NC1CCN(Cc2ccccc2)CC1
The melting point of the first is higher: 138 °C for the first, 117 to 118 °C for the second.

First: O=C(O)Cc1ccc(C2CC(=O)c3ccccc32)cc1 (stereo unspecified)
Second: C=C1CC(COc2ccc3ccc(=O)oc3c2)(c2ccccc2)OC1=O (stereo unspecified)
The melting point of the first is higher: 151 °C for the first, 105 to 106 °C for the second.

First: O=C1NC(Cc2cccc(OC(F)(F)C(F)F)c2)C(c2ccc(Oc3ccccc3)cn2)O1 (stereo unspecified)
Second: Nc1cccc(-c2ccc(CCN3CCC4(CC3)NC(=O)N(Cc3ccccc3)C4=O)cc2)n1
The melting point of the first is lower: 87 to 88 °C for the first, 190 °C for the second.

First: CCCCCCCSc1nn2c(=O)c(C)c(Cl)nc2s1
Second: CCCCN(CC)C(=O)c1cnc2c3c(ccc2c1)C(=O)C(C(=O)O)C=N3 (stereo unspecified)
The melting point of the first is lower: 79 to 81 °C for the first, 236 to 237 °C for the second.

First: Cc1cc(Cl)cc(C(=O)Nc2nc(C)cs2)n1
Second: CC(=O)Oc1ccccc1Cn1nnnc1-c1cccc(Cl)c1Cl
The melting point of the first is lower: 176 °C for the first, 195 to 196 °C for the second.

First: CC(=O)SCCC(=O)Oc1ccc([N+](=O)[O-])cc1
Second: CCCc1c(OCC(O)CSc2ccc(C(=O)CCC(=O)O)c(F)c2)ccc(C(C)=O)c1O (stereo unspecified)
The melting point of the first is lower: 71 to 73 °C for the first, 136 to 137 °C for the second.

First: CN1CCN(c2cccc(-c3cnn4c(N)c(-c5cccc(Br)c5)cnc34)c2)CC1
Second: O=C(CN1CCOCC1)Nc1ccc(-c2n[nH]c3c2Cc2ccccc2-3)cc1
The melting point of the first is lower: 195 to 197 °C for the first, 291 to 292 °C for the second.

Compared with `COC(=O)C=Cc1cc(O)c(O)c([N+](=O)[O-])c1`, `O=C(O)CCC(=O)N1Cc2c(cc3ccc4c(c3c2-c2ccc3c(c2)OCO3)OCO4)C1=O` is higher in melting point: 186 to 187 °C for the first, 231 to 233 °C for the second.

Work on `CNC(=O)N1CCc2[nH]cnc2C1c1cccs1` (stereo unspecified) yielded a melting point of 230 °C.
